Reference: PMC6166661 (Neuropeptides, 2018)

Columns and labels:
[1] = test system: C3aR1; conditions: ref Cianflone et al., 2003; Murray et al., 2000; cited from earlier work
[2] = test system: isoproterenol-stimulated lipolysis; assay: Acute effect on isoproterenol-stimulated lipolysis; assay type: in vivo, rat; conditions: rats

Compound	activity at C3aR1 [1]	change of plasma palmitate concentration during infusion ([2]; constant i.v. infusion 30 ng•min^−1, vs basal)	plasma palmitate concentration at end of experiment, of the initial value ([2]; isoproterenol infusion plus saline bolus (control group))
ASP: des-arginine peptide generated from C3a by cleaving the C-terminal arginine residue (R77)	inactive	–	–
CC(C)NCC(O)c1ccc(O)c(O)c1 (stereo not drawn) [isoproterenol]	–	more than doubled	~ 75%
